Target: Mast/stem cell growth factor receptor Kit (Homo sapiens, UniProt P10721)
Test: Magnesium chloride (MgCl2), Manganese(II) chloride (MnCl2), Bovine serum albumin (BSA) and dimethylsulfoxide (DMSO) were purchased from Sigma-Aldrich.

Mast/stem cell growth factor receptor Kit, sequence (P10721 whole entry): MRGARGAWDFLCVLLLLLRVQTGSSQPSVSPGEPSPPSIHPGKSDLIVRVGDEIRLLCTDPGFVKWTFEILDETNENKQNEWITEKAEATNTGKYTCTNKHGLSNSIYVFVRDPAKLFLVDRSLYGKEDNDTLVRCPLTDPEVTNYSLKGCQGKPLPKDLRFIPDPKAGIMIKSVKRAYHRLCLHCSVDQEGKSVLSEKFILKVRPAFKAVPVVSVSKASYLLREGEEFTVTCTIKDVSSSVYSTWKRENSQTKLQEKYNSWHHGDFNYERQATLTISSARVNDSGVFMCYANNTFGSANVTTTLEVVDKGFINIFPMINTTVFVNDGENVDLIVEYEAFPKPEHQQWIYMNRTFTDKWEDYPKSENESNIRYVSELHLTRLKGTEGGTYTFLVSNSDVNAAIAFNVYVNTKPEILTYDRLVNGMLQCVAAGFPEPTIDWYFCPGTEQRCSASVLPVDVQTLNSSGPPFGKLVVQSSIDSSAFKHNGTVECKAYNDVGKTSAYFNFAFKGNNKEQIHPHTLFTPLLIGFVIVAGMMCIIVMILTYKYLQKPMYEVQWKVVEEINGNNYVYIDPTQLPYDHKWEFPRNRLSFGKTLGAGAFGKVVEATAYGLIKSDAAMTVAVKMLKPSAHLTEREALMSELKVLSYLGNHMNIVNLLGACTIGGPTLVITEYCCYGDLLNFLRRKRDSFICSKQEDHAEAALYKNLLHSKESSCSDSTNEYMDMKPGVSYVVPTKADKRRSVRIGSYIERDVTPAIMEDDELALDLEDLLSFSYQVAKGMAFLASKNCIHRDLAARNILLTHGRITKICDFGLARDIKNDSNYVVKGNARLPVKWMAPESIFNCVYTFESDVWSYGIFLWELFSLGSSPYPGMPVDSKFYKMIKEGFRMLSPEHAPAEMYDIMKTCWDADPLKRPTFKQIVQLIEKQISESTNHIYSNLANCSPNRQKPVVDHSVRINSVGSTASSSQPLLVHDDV

IC50: > 10 µM
SMILES: Cc1ccc2c(c1-c1ccc3nc(NC(=O)[C@@H]4C[C@@H]4F)sc3c1)CCN2
